Laboratory results: patent publication US20070105181A1, “Identification of cancer biomarkers and phosphorylated pdroteins” (Invitrogen Corporation, priority 2005, published 2007)

Tested on: Dok-2 phosphorylation (tyrosine 299)
Experiment: SILAC/MALDI-TOF quantitation of Dok-2 phosphopeptide in CML cells after STI571 treatment
Format: cell-based
Settings: human CML cells
Method: SILAC is a also powerful tool for quantifying posttranslational modifications. We examined the change in the level of phosphophorylation of Dok-2 in response to treatment of STI571, an inhibitor of Bcr-Abl kinase, in human chronic myelogenous leukemia cells. As a control, aliquots of heavy tyrosine (U—^13C9) labeled cells (5×10^8) were mixed equally with light tyrosine (^12C) labeled cells (5×10^8) before the drug treatment.
A first aliquot of heavy tyrosine labeled cells (5×10^8) was preincubated with 1 μM of STI571 at 37° C. for 1 h and then mixed with an equal number of light (natural abundance) isotope tyrosine labeled cells. A second aliquot of heavy tyrosine labeled cells (5×10^8) was preincubated with 1 μM of STI571 at 37° C. for 2 h and then also mixed with an equal number of light (natural abundance) isotope tyrosine labeled cells. In both cases, the cell mixtures (1×10^9) were lysed with NP40 lysis buffer and incubated with 30 μg of the GST fusion of the SH2 domain of SHIP1 conjugated to glutathione Sepharose 4B. Affinity captured proteins were then analyzed by SDS-PAGE on a NuPAGE® acrylamide gel (Invitrogen, Carlsbad, Calif.) and stained with SimplyBlue™ SafeStain™ protein gel stain (Invitrogen, Carlsbad, Calif.). The Dok-2 protein bands from each mixed cell sample were excised and digested with trypsin. The resulting tryptic peptides were analyzed by MALDI-TOF.

In the case of Cc1ccc(NC(=O)c2ccc(CN3CCN(C)CC3)cc2)cc1Nc1nccc(-c2cccnc2)n1 [STI571], the “amount of phosphopeptide of Dok2 reduced to (peptide ratio m/z 1688 to m/z 1697)” value (1 μM STI571, 37° C., 1 h) is reported as 75%, the “inhibition of heavy labeled Dok-2 phosphopeptide (ratio of isotopic peptide pairs)” value (1 μM STI571, 37° C., 2 h) is reported as “more than 90%” and the “decrease of phosphorylation level of Dok-2 Tyrosine 299 site” value (STI571 treatment, 1 h) is reported as 75%.
